Test systems include 786-0; CAKI-1; CCRF-CEM; DU-145; EKVX; HCT-116; HL-60; HOP-62; Hs-578T; K562; M14; MCF7; MDA-MB-435; NCI-H23; OVCAR-5; SN12C; SNB-19; SR; U-251; UACC-257.
Holding throughout (assay): NCI-60 cell line screen, 48 h

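1) Cells in 96-well plates. 2) Compound, 48 h, 5 concentrations. 3) Linear interpolation between surrounding doses. 4) Unreached endpoint = highest concentration. At the GI50, growth is halved.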 Calls of active or inactive are those of the source. Cut-off read from the data, not from the text of the source: active = GI50 up to about 1.1 µM and inactive = higher. Some results are limits rather than exact numbers.

As for `CCOc1nc2c(N3CCCC3)nc(N3CCNCC3)nc2nc1NCc1ccccc1`, the GI50 with 786-0 is 1.39 µM (inactive); in the assay on CAKI-1, 1.85 µM (inactive); in the assay with CCRF-CEM it was 1.26 µM (inactive); in the assay with DU-145 it was 0.944 µM (active); with EKVX, 2.1 µM (inactive); in the assay with HCT-116, 0.923 µM (active). The GI50 with HL-60 is 1.4 µM (inactive); in the assay with HOP-62, 1.05 µM (active); in the assay with Hs-578T it was 1.72 µM (inactive); in the assay on K562 it was 1.2 µM (inactive); in the assay with M14, 1.61 µM (inactive); in the assay on MCF7 it was 1.53 µM (inactive). Further, the GI50 with MDA-MB-435 was 1.34 µM (inactive); in the assay with NCI-H23 it was 1.51 µM (inactive); in the assay with OVCAR-5 it was 4.14 µM (inactive); in the assay on SN12C, 1.5 µM (inactive); with SNB-19, 1.51 µM (inactive); in the assay on SR, 1.31 µM (inactive). Besides, the figures for the GI50 in the assay on U-251 and in the assay with UACC-257 were 1.17 µM (inactive) and 1.74 µM (inactive), respectively.
In the case of `CCc1nc(N)nc(N)c1-c1ccc(N(C)Cc2ccccc2)c([N+](=O)[O-])c1`, the GI50 is 0.0231 µM (active) in the assay on 786-0; 0.0706 µM (active) with CAKI-1; 0.0237 µM (active) in the assay with CCRF-CEM; 0.215 µM (active) in the assay with DU-145; 1.16 µM (inactive) with EKVX; < 0.01 µM (active) with HCT-116. Also, the GI50 in the assay with HL-60 was < 0.01 µM (active); in the assay on HOP-62 it was 0.13 µM (active); with Hs-578T, 10.2 µM (inactive); in the assay with K562 it was < 0.01 µM (active); in the assay with M14 it was 0.064 µM (active); in the assay on MCF7, 0.202 µM (active). Moreover, the GI50 was 0.0811 µM (active) in the assay on MDA-MB-435; 0.0708 µM (active) in the assay on NCI-H23; 8.17 µM (inactive) in the assay with OVCAR-5; 1.34 µM (inactive) in the assay with SN12C; 0.745 µM (active) with SNB-19; 0.0187 µM (active) in the assay with SR. The figures for the GI50 in the assay on U-251 and in the assay on UACC-257 were 0.0374 µM (active) and 2.58 µM (inactive), respectively.
With `NS(=O)(=O)c1ccc(NNc2c3ccccc3nc3ccccc23)cc1`, the GI50 is 12.6 µM (inactive) with 786-0; 13 µM (inactive) in the assay on CAKI-1; 6.28 µM (inactive) in the assay on CCRF-CEM; 14.3 µM (inactive) with DU-145; 12.5 µM (inactive) in the assay on EKVX; 10.8 µM (inactive) in the assay on HCT-116. In addition, the GI50 in the assay with HL-60 was 8.63 µM (inactive); in the assay with HOP-62, 12.2 µM (inactive); in the assay with Hs-578T it was 14.5 µM (inactive); in the assay on K562 it was 7.89 µM (inactive); with M14, 11.2 µM (inactive); in the assay on MCF7, 10.9 µM (inactive). The GI50 with MDA-MB-435 was 12.4 µM (inactive); in the assay with NCI-H23 it was 13.6 µM (inactive); in the assay on OVCAR-5, 12.8 µM (inactive); in the assay on SN12C, 14 µM (inactive); in the assay on SNB-19, 14.7 µM (inactive); in the assay with SR, 10.8 µM (inactive). The figures for the GI50 with U-251 and with UACC-257 were 11.7 µM (inactive) and 13.2 µM (inactive), respectively.
For the compound `O=C1C2=C(CC3=C(C2)CS(=O)(=O)C3)C(=O)C2=C1CC1=C(C2)CS(=O)(=O)C1`, the GI50 in the assay on 786-0 is 25.9 µM (inactive); in the assay on CAKI-1, 36 µM (inactive); with CCRF-CEM, 12.8 µM (inactive); with DU-145, 48.2 µM (inactive); with EKVX it was 33.2 µM (inactive); in the assay on HCT-116, 11.7 µM (inactive). The GI50 in the assay with HL-60 was 8.93 µM (inactive); in the assay with HOP-62 it was 20.5 µM (inactive); with Hs-578T, > 32.4 µM (inactive); in the assay with K562, 10.6 µM (inactive); in the assay with M14, > 37.7 µM (inactive); in the assay on MCF7 it was 13.2 µM (inactive). The GI50 in the assay on MDA-MB-435 was 9.18 µM (inactive); in the assay with NCI-H23, 23.9 µM (inactive); with OVCAR-5, 43.4 µM (inactive); in the assay on SN12C, 15.3 µM (inactive); in the assay on SNB-19, 17.7 µM (inactive); in the assay on SR, 4.4 µM (inactive). Moreover, the GI50 in the assay with U-251 was 13.5 µM (inactive); in the assay on UACC-257 it was 29 µM (inactive).
`C=C1CC2(CC(c3ccccc3C)OC(c3ccccc3C)C2)OC1=O` (stereo not given): the GI50 in the assay on 786-0 was 1.96 µM (inactive); in the assay on CAKI-1, 1.87 µM (inactive); with CCRF-CEM it was 2.04 µM (inactive); in the assay on DU-145, 12.1 µM (inactive); with EKVX it was 16.1 µM (inactive); with HCT-116 it was 1.82 µM (inactive). The GI50 in the assay on HL-60 is 1.6 µM (inactive); with HOP-62, 10.7 µM (inactive); in the assay with Hs-578T, 2.24 µM (inactive); in the assay on K562 it was 2.15 µM (inactive); in the assay on M14 it was 1.59 µM (inactive); with MCF7, 1.85 µM (inactive). In addition, the GI50 in the assay on MDA-MB-435 is 1.71 µM (inactive); in the assay with NCI-H23, 1.96 µM (inactive); in the assay with OVCAR-5 it was 13.2 µM (inactive); in the assay on SN12C, 1.97 µM (inactive); in the assay on SNB-19 it was 16.3 µM (inactive); with SR, 2.15 µM (inactive). Besides, the GI50 with U-251 was 12.9 µM (inactive); with UACC-257, 1.78 µM (inactive).
As to `CN(C)CCN1C(=O)CC[C@@]2(C)C1=CC[C@@H]1[C@@H]2CC[C@@]2(C)[C@H]1CC[C@]2(C)O`, the GI50 was > 100 µM (inactive) with 786-0; > 100 µM (inactive) with CAKI-1; > 100 µM (inactive) in the assay with CCRF-CEM; > 100 µM (inactive) in the assay with DU-145; > 100 µM (inactive) with EKVX; 71.6 µM (inactive) with HCT-116. The GI50 in the assay on HL-60, in the assay with HOP-62, with Hs-578T, in the assay on K562, in the assay on M14 and in the assay on MCF7 was > 100 µM (inactive) throughout. Besides, the GI50 with MDA-MB-435, in the assay with NCI-H23, with OVCAR-5, with SN12C, with SNB-19 and with SR was > 100 µM (inactive) each time. Further, the GI50 in the assay with U-251 and with UACC-257 was > 100 µM (inactive) each time.
On to `CC1(CCCC2(C)CCNC2=O)OCCO1` (stereo not given), for which the GI50 in the assay on 786-0, with CAKI-1, in the assay on CCRF-CEM, in the assay with DU-145, in the assay on EKVX and with HCT-116 was > 10 µM (inactive) in each case. The GI50 in the assay on HL-60, in the assay with HOP-62, in the assay on Hs-578T, with K562, in the assay with M14 and with MCF7 was > 10 µM (inactive) in each case. In addition, the GI50 with MDA-MB-435, in the assay on NCI-H23, with OVCAR-5, in the assay on SN12C, with SNB-19 and in the assay with SR was > 10 µM (inactive) throughout. Besides, the GI50 with U-251 and in the assay with UACC-257 was > 10 µM (inactive) in each case.
With `Clc1ccc(-c2nnc(-c3cccc4ccccc34)o2)cc1Cl`, the GI50 in the assay on 786-0, in the assay on CAKI-1, in the assay on CCRF-CEM, in the assay with DU-145, in the assay on EKVX and in the assay with HCT-116 was > 100 µM (inactive) each time. Besides, the GI50 in the assay with HL-60 is 1.03 µM (active); with HOP-62, > 100 µM (inactive); with Hs-578T, > 100 µM (inactive); with K562 it was > 100 µM (inactive); in the assay on M14, > 100 µM (inactive); in the assay with MCF7, > 100 µM (inactive). Besides, the GI50 is > 100 µM (inactive) in the assay with MDA-MB-435; > 100 µM (inactive) in the assay on NCI-H23; > 100 µM (inactive) in the assay with OVCAR-5; > 100 µM (inactive) with SN12C; > 100 µM (inactive) in the assay on SNB-19; 40.3 µM (inactive) in the assay on SR. Moreover, the GI50 in the assay with U-251 and with UACC-257 was > 100 µM (inactive) throughout.
Take `FC(F)(F)c1ccc2c(-c3cc[nH]c3)ccnc2c1`: the GI50 in the assay on 786-0 was 17.7 µM (inactive); in the assay with CAKI-1 it was 31.4 µM (inactive); in the assay with CCRF-CEM, 32.6 µM (inactive); with DU-145, 32.5 µM (inactive); with EKVX it was 33 µM (inactive); in the assay on HCT-116, 32.5 µM (inactive). Further, the GI50 is 16.7 µM (inactive) in the assay with HL-60; 35.5 µM (inactive) in the assay on HOP-62; 23.9 µM (inactive) in the assay on Hs-578T; 30 µM (inactive) in the assay with K562; 34.5 µM (inactive) with M14; 30.8 µM (inactive) in the assay with MCF7. Also, the GI50 with MDA-MB-435 was 35 µM (inactive); in the assay on NCI-H23, 28 µM (inactive); in the assay with OVCAR-5 it was 44.9 µM (inactive); with SN12C it was 41 µM (inactive); in the assay with SNB-19, 17.5 µM (inactive); in the assay on SR, 27 µM (inactive). The values for the GI50 in the assay on U-251 and in the assay with UACC-257 were 44.3 µM (inactive) and 31.4 µM (inactive), respectively.
Take `O=C1OC(c2ccccc2)=N/C1=C\c1ccc(N(CCCl)CCCl)cc1`: the GI50 in the assay on 786-0 was > 94 µM (inactive); with CAKI-1, > 100 µM (inactive); in the assay with CCRF-CEM, 26 µM (inactive); with DU-145 it was > 100 µM (inactive); with EKVX, > 100 µM (inactive); with HCT-116, > 100 µM (inactive). The GI50 is 45.4 µM (inactive) with HL-60; > 89.5 µM (inactive) in the assay on HOP-62; > 100 µM (inactive) in the assay with Hs-578T; 16.5 µM (inactive) with K562; > 100 µM (inactive) in the assay with M14; 39.9 µM (inactive) in the assay with MCF7. In addition, the GI50 in the assay on MDA-MB-435 is > 100 µM (inactive); with NCI-H23, > 57.8 µM (inactive); in the assay on OVCAR-5 it was > 100 µM (inactive); in the assay on SN12C, > 92 µM (inactive); with SNB-19 it was > 100 µM (inactive); in the assay with SR, 11.6 µM (inactive). In addition, the GI50 in the assay with U-251 and in the assay on UACC-257 was > 100 µM (inactive) in each case.
